Source: US4321196A, “Bis-esters of methanediol with acetonides of ampicillin or amoxicillin and penicillanic acid 1,1-dioxide” (Pfizer Inc., priority 1981, dated 1982)

Test: Serum half-life comparison of Compound I with Compound II in fasted rats, and general statements on absorption and half-life
Format: in vivo
Details: 20 mg/kg oral, versus Compound II (Y=H)
Experimental: Since the object of the present invention is to provide a single well-absorbed source of ampicillin/amoxicillin and penicillanic acid 1,1-dioxide in serum, the compounds of the present invention are also evaluated by determination of the serum levels of these derived compounds in experimental animals, such as laboratory rats. The serum level results in fasted rats following the oral administration of 20 mg./kg. of 6'-(2,2-dimethyl-4-phenyl-5-imidazolidinon-1-yl)-penicillanoyloxymethyl penicillanate 1,1-dioxide (I, Y=H) are shown in Table I. In this test, 6'-(2-amino-2-phenylacetamido)penicillanoyloxymethyl penicillanate 1,1-dioxide (II, Y=H) at the same oral dosage has been used as control. The blood level of ampicillin was determined by standard plate bioassay methods, using Sarcina lutea 07A001 on Seed agar. For determination of penicillanic acid 1,1-dioxide, Pasturella 59B010 on MH agar was employed. It will be noted there is an approximately 50% improvement in the half-life of Compound I (Y=H) over Compound II (Y=H).

CC1(C)S[C@@H]2[C@H](N3C(=O)[C@@H](c4ccccc4)NC3(C)C)C(=O)N2[C@H]1C(=O)OCOC(=O)[C@@H]1N2C(=O)C[C@H]2S(=O)(=O)C1(C)C [Compound I (Y = H), 6'-(2,2-Dimethyl-4-phenyl-5-imidazolidinon-1-yl)-penicillanoyloxymethyl Penicillanate 1,1-Dioxide]
Improvement in the half-life over Compound II (Y=H): approximately 50%
